# Biological target: T1, α2AAR (α2A-adrenergic receptor) (Homo sapiens, UniProt P08913)
# T1 construct: expressed in transfected cells; host or cells: HEK293
# T1 sequence (P08913 1-465): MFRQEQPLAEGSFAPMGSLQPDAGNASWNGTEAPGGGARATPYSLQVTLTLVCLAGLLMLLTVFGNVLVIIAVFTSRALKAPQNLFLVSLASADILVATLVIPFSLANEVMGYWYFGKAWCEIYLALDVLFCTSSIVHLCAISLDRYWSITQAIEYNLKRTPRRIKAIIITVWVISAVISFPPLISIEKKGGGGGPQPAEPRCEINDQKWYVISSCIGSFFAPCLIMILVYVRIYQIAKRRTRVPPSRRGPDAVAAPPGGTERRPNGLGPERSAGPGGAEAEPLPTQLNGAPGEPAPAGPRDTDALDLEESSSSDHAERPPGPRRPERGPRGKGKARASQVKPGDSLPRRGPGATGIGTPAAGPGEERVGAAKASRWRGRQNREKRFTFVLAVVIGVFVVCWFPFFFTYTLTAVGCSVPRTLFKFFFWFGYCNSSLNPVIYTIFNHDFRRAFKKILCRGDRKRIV
# Assay: α2AAR FLIPR assay (agonist activity)
# Assay type: cell-based
# Details: FLIPR, α2AAR cell line hosted in HEK293 cells; read-out: α2A agonist activity (EC50)
# Procedure: This experimental protocol involved cell seeding and a FLIPR assay using the α2AAR (α2A-adrenergic receptor) cell line hosted in HEK293 cells. […] On Day 1, the cell seeding process started with the removal of the culture medium, followed by rinsing the cells with DPBS (21-031-CVC, Corning). […] The cells were detached, resuspended in growth media, and centrifuged at room temperature at 1000 rpm for 5 minutes. After discarding the supernatant, the cell pellet was resuspended in growth media to a concentration of 10× 10^5 cells per mL. This suspension was added to 384-well plates (19-Jul-38, Greiner) at 20 μL per well and incubated overnight at 37° C. in 5% CO2.
# A 250 mM Probenecid solution was prepared in this buffer. The Fluo-4 Direct™ Loading Buffer was made by dissolving Fluo-4 Direct™ crystals (F10471, Invitrogen) in the FLIPR Assay Buffer and adding Probenecid. The buffer was then vortexed and allowed to stand for over 5 minutes, shielded from light. For the FLIPR procedure, testing compounds for agonist activite were serially diluted and transferred to a 384-well compound plate (25-Jan-39, Greiner). The cell plate was then treated with 2× Fluo-4 Direct™ loading buffer and incubated for 50 minutes at 37° C. in a 5% CO2 atmosphere, followed by 10 minutes at room temperature. Subsequently, the FLIPR assay buffer was added to the compound plate, which is then centrifuged.
# The cell plate was analyzed in the FLIPR Tetra+ System for fluorescence signals. For the agonist test, reference compounds were added to the cell plates, and fluorescence was measured. The “Max-Min” calculation began from Read 1 to the maximum allowed. The data were analyzed using Prism software to calculate activation percentage for agonists and inhibition percentage for antagonists. The results were then fitted using specific models to determine EC50 for agonists.
# The experimental protocol utilized various reagents and apparatus, including Penicillin/Streptomycin (100×) (SV30010, Hyclone), Poly-L-lysine hydrobromide (P1399, Sigma), and different types of 384-well plates such as the 384-Well PP 2.0 Microplate (PP-0200, LABCYTE) and 384 well Low Dead Volume Microplate (LP-0200, LABCYTE). The use of specific reference compounds like UK14304 was also integral to the assay.
row,Compound,EC50
1,Cc1cccc(C(c2cccc(-c3cnnn3C)c2)c2c[nH]cn2)c1C (stereo not drawn) [compound 164],0.01 to 0.05 µM
2,Cc1cccc(C(c2cccc(NS(=O)(=O)C[C@H]3CCCO3)c2)c2c[nH]cn2)c1C (stereo partly drawn) [compound 166],0.01 to 0.05 µM
3,COP(=O)(CC1CCOCC1)Nc1cccc(C(c2c[nH]cn2)c2cccc(C)c2C)c1 (stereo not drawn) [compound 167],0.01 to 0.05 µM
4,Cc1cccc(C(Cc2ccc(C(C)C(=O)O)cc2)c2c[nH]cn2)c1C (stereo not drawn) [compound 174],0.01 to 0.05 µM
5,Cc1cccc(C(Cc2ccc(S(=O)(=O)NC3COC3)cc2)c2c[nH]cn2)c1C (stereo not drawn) [compound 179],< 0.01 µM
6,Cc1cccc(C(c2cccc(NC(=O)N3CCCCC3)c2)c2c[nH]cn2)c1C (stereo not drawn) [compound 180],0.01 to 0.05 µM
7,CNC(=O)c1ccc(CC(c2c[nH]cn2)c2cccc(C)c2C)cc1F (stereo not drawn) [compound 192],0.01 to 0.05 µM
8,CC(=O)Nc1ccc(CC(c2c[nH]cn2)c2cccc(C)c2C)cc1F (stereo not drawn) [compound 193],0.01 to 0.05 µM
9,Cc1cccc(C(Cc2ccc3c(c2)OCCO3)c2c[nH]cn2)c1C (stereo not drawn) [compound 196],0.05 to 0.25 µM
10,Cc1cccc(C(Cc2ccc(C(=O)O)c(F)c2)c2c[nH]cn2)c1C (stereo not drawn) [compound 197],0.01 to 0.05 µM
11,Cc1cccc(C(c2c[nH]cn2)c2cccc(-c3cnnn3C)c2F)c1C (stereo not drawn) [compound 201],0.01 to 0.05 µM
12,Cc1cccc(C(Cc2ccc(C(=O)NS(=O)(=O)c3ccccc3)cc2)c2c[nH]cn2)c1C (stereo not drawn) [compound 204],0.05 to 0.25 µM
13,Cc1cccc(C(Cc2ccc(-c3cnnn3C)cc2)c2c[nH]cn2)c1C (stereo not drawn) [compound 209],0.01 to 0.05 µM
14,Cc1cccc(C(Cc2ccc(-c3nnn[nH]3)cc2)c2c[nH]cn2)c1C (stereo not drawn) [compound 210],0.05 to 0.25 µM
15,Cc1cn(-c2ccc(CC(c3c[nH]cn3)c3cccc(C)c3C)cc2)nn1 (stereo not drawn) [compound 211],0.01 to 0.05 µM

# More lines, now with the values ahead:
row,EC50,Compound
1,< 0.01 µM,Cc1cccc(C(Cc2ccc(NC(=O)CC3CCCCO3)cc2)c2c[nH]cn2)c1C (stereo not drawn) [compound 169]
2,< 0.01 µM,Cc1cccc(C(Cc2ccc(NC(=O)CC3CCOC3)cc2)c2c[nH]cn2)c1C (stereo not drawn) [compound 171]
3,0.01 to 0.05 µM,Cc1cccc(C(Cc2ccc(C(=O)O)cc2)c2c[nH]cn2)c1C (stereo not drawn) [compound 175]
4,< 0.01 µM,Cc1cccc(C(Cc2ccc(NC(=O)CC3CCCO3)cc2)c2c[nH]cn2)c1C (stereo not drawn) [compound 176]
5,< 0.01 µM,Cc1cccc(C(Cc2ccc(C(=O)NC3CCOCC3)cc2)c2c[nH]cn2)c1C (stereo not drawn) [compound 177]
6,0.05 to 0.25 µM,Cc1cccc(C(Cc2ccc(NC(=O)CC3CCCCC3)cc2)c2c[nH]cn2)c1C (stereo not drawn) [compound 181]
7,0.01 to 0.05 µM,COC(=O)Nc1ccc(CC(c2c[nH]cn2)c2cccc(C)c2C)cc1 (stereo not drawn) [compound 194]
8,0.01 to 0.05 µM,COCC(=O)Nc1ccc(CC(c2c[nH]cn2)c2cccc(C)c2C)cc1 (stereo not drawn) [compound 195]
9,0.01 to 0.05 µM,Cc1cccc(C(Cc2ccc(NC(=O)NC3CCOC3)cc2)c2c[nH]cn2)c1C (stereo not drawn) [compound 198]
10,0.05 to 0.25 µM,CNc1ccc(CC(c2c[nH]cn2)c2cccc(C)c2C)cc1 (stereo not drawn) [compound 203]
11,0.05 to 0.25 µM,Cc1cccc(C(Cc2ccc(CC(=O)O)cc2)c2c[nH]cn2)c1C (stereo not drawn) [compound 206]
12,0.01 to 0.05 µM,Cc1cccc(C(Cc2ccc(NC3CCOCC3)cc2)c2c[nH]cn2)c1C (stereo not drawn) [compound 207]

# Biological target: T2, α2AAR (Homo sapiens, UniProt P08913)
# T2 construct: host or cells: HEK293 (membranes)
# T2 sequence (P08913 1-465): T1 sequence (P08913 1-465)
# Assay: α2AAR binding assay ([3H]-RX 821002 radioligand)
# Details: [3H]-RX 821002 0.5 nM, HEK293 membranes; read-out: α2A affinity (Ki)
row,Compound,Ki
1,Cc1cccc(C(c2cccc(-c3cnnn3C)c2)c2c[nH]cn2)c1C (stereo not drawn) [compound 164],0.01 to 0.05 µM
2,Cc1cccc(C(c2cccc(NS(=O)(=O)C[C@H]3CCCO3)c2)c2c[nH]cn2)c1C (stereo partly drawn) [compound 166],0.01 to 0.05 µM
3,COP(=O)(CC1CCOCC1)Nc1cccc(C(c2c[nH]cn2)c2cccc(C)c2C)c1 (stereo not drawn) [compound 167],0.01 to 0.05 µM
4,Cc1cccc(C(Cc2ccc(C(C)C(=O)O)cc2)c2c[nH]cn2)c1C (stereo not drawn) [compound 174],0.05 to 0.25 µM
5,Cc1cccc(C(Cc2ccc(S(=O)(=O)NC3COC3)cc2)c2c[nH]cn2)c1C (stereo not drawn) [compound 179],< 0.01 µM
6,Cc1cccc(C(c2cccc(NC(=O)N3CCCCC3)c2)c2c[nH]cn2)c1C (stereo not drawn) [compound 180],0.01 to 0.05 µM
7,CNC(=O)c1ccc(CC(c2c[nH]cn2)c2cccc(C)c2C)cc1F (stereo not drawn) [compound 192],< 0.01 µM
8,CC(=O)Nc1ccc(CC(c2c[nH]cn2)c2cccc(C)c2C)cc1F (stereo not drawn) [compound 193],< 0.01 µM
9,Cc1cccc(C(Cc2ccc3c(c2)OCCO3)c2c[nH]cn2)c1C (stereo not drawn) [compound 196],< 0.01 µM
10,Cc1cccc(C(Cc2ccc(C(=O)O)c(F)c2)c2c[nH]cn2)c1C (stereo not drawn) [compound 197],0.05 to 0.25 µM
11,Cc1cccc(C(c2c[nH]cn2)c2cccc(-c3cnnn3C)c2F)c1C (stereo not drawn) [compound 201],< 0.01 µM
12,Cc1cccc(C(Cc2ccc(C(=O)NS(=O)(=O)c3ccccc3)cc2)c2c[nH]cn2)c1C (stereo not drawn) [compound 204],0.05 to 0.25 µM
13,Cc1cccc(C(Cc2ccc(-c3cnnn3C)cc2)c2c[nH]cn2)c1C (stereo not drawn) [compound 209],< 0.01 µM
14,Cc1cccc(C(Cc2ccc(-c3nnn[nH]3)cc2)c2c[nH]cn2)c1C (stereo not drawn) [compound 210],0.01 to 0.05 µM
15,Cc1cn(-c2ccc(CC(c3c[nH]cn3)c3cccc(C)c3C)cc2)nn1 (stereo not drawn) [compound 211],< 0.01 µM

# Further lines, results first:
row,Ki,Compound
1,< 0.01 µM,Cc1cccc(C(Cc2ccc(NC(=O)CC3CCCCO3)cc2)c2c[nH]cn2)c1C (stereo not drawn) [compound 169]
2,< 0.01 µM,Cc1cccc(C(Cc2ccc(NC(=O)CC3CCOC3)cc2)c2c[nH]cn2)c1C (stereo not drawn) [compound 171]
3,0.25 to 1 µM,Cc1cccc(C(Cc2ccc(C(=O)O)cc2)c2c[nH]cn2)c1C (stereo not drawn) [compound 175]
4,< 0.01 µM,Cc1cccc(C(Cc2ccc(NC(=O)CC3CCCO3)cc2)c2c[nH]cn2)c1C (stereo not drawn) [compound 176]
5,0.01 to 0.05 µM,Cc1cccc(C(Cc2ccc(C(=O)NC3CCOCC3)cc2)c2c[nH]cn2)c1C (stereo not drawn) [compound 177]
6,< 0.01 µM,Cc1cccc(C(Cc2ccc(NC(=O)CC3CCCCC3)cc2)c2c[nH]cn2)c1C (stereo not drawn) [compound 181]
7,< 0.01 µM,COC(=O)Nc1ccc(CC(c2c[nH]cn2)c2cccc(C)c2C)cc1 (stereo not drawn) [compound 194]
8,< 0.01 µM,COCC(=O)Nc1ccc(CC(c2c[nH]cn2)c2cccc(C)c2C)cc1 (stereo not drawn) [compound 195]
9,< 0.01 µM,Cc1cccc(C(Cc2ccc(NC(=O)NC3CCOC3)cc2)c2c[nH]cn2)c1C (stereo not drawn) [compound 198]
10,< 0.01 µM,CNc1ccc(CC(c2c[nH]cn2)c2cccc(C)c2C)cc1 (stereo not drawn) [compound 203]
11,0.05 to 0.25 µM,Cc1cccc(C(Cc2ccc(CC(=O)O)cc2)c2c[nH]cn2)c1C (stereo not drawn) [compound 206]
12,< 0.01 µM,Cc1cccc(C(Cc2ccc(NC3CCOCC3)cc2)c2c[nH]cn2)c1C (stereo not drawn) [compound 207]

# Reference: patent publication US20240374573A1, “IMIDAZOLE CONTAINING COMPOUNDS, DERIVATIVES THEREFORE, AND USES THEREOF” (AglaeaPharma Inc., priority 2023, published 2024)
